We go through five compounds from patent US20100234362A1, “USE OF DIAZOXIDE FOR SUPPRESSING THE PLASMA INSULIN LEVEL IN A MAMMAL” (priority 2007, published 2010).

Like-named read-outs stand apart in the source and are kept apart here.

One series deals with insulin secretion. Particulars: at comparable dosages; cited from earlier work.
Another series has as its system plasma insulin levels. Particulars: one week, cited from earlier work.
The conditions of series [1]: cited from earlier work.
The conditions of series [2]: for Weight: 14 obese men after 6 months oral Diazoxide (mean 600±54 mg/day), mean ± SE, baseline 115.1 ± 3.4; for Waist circumference: baseline 116.9 ± 1.4.
Experimental: All subjects received were explained the physiological principle of this study. They also received dietary advice to reduce caloric intake to the calculated basal requirements for ideal body weight (based on the Harrison-Bennedict equation) and the instruction to increase walking exercise to at least 30 minutes a day. All subjects were allowed to do more physical exercise; the amount of daily physical exercise was not recorded. All subjects were instructed how to perform home glucose measurements (HGM). Blood samples were taken in the fasting state, (a) 2 hours after breakfast, just before lunch, (b) 2 hours after lunch, just before dinner, (c) 2 hours after dinner, at bedtime, and (d) at 3 am.
Baseline measurements included body weight, body height, abdominal circumference, body composition by total body dual energy X-ray absorptiometry (DEXA), supine and upright blood pressure, HGM for two days and the assessment of serum glucose levels and serum insulin levels in response to a standarised test meal. […] Venous blood samples were taen through a venous line inserted into the forearm at −30, 0, 30, 45, 60, 90, 120, 180, 240 and 300 minutes.
After completion of all baseline measurements, the subjects started Diazoxide 50 mg (three times a day) which was taken before each meal. Subsequently, the outpatient clinic was visited every month where the following data were recorded: body weight, abdominal circumference, supine and upright blood pressure, the results of a two-day, 8-point HGM performed in the week preceding the visit and adverse effects. Every visit, the daily Diazoxide dose was increased by 3×50 mg until a maximum of 300 mg (three times a day) was reached or until adverse side effects occurred. The Diazoxide dose was not increased if clinically relevant edema persisted for ore than a month, if upright systolic blood pressure was <110 mm Hg, if upright diastolic blood pressure was <70 mm Hg, or if fasting home glucose level was >7 nmol/l, or non-fasting home glucose level was >11 nmol/l.
After six months of treatment, all measurements were repeated including the meal test. Diazoxide was taken at t−30. Blood samples taken during the meal test at t120 were also analysed for Diazoxide levels. […] The results of total body DEXA were expressed as kg lean body mass, fat mass and bone mass. Normal values for serum glucose levels and serum insuli levels during the test meal were obtained by performing this test in ten healthy, age-matched, non-obese men (BMI about 20 to about 25 kg/m^2).
All data are shown as mean values±standard error (SE). The paired t-test was used to analyse the response to Diazoxide treatment, employing the Bonferoni correction for multiple comparisons. A p-value of less than 0.05 was considered to be statistically significant.
Series [3] is described as follows: Plasma Diazoxide level by HPLC/UV. The class given is in vivo. Conditions: male, human, at six months, mean daily dose 600±54 mg (5.7±0.5 mg/kg), oral, three times a day, read-out: plasma DZX level. An excerpt:
Diazoxide was taken at t−30.

The conditions of series [4]: maximal 200 mg/day divided in three dosages, eight weeks, 24 hyperinsulinemic patients; placebo 5.0 kg; cited from earlier work.
For series [5] the following is noted: 8-week weight-loss diet, hyperinsulinaemic obese subjects; cited from earlier work.
Series [6] concerns plasma insulin and glucose levels. As to the kind of experiment: Standardised 500 kCal meal test before and after six months of Diazoxide: plasma glucose and insulin. The class given is in vivo, human. More on the design: Whole Body Insulin Sensitivity: unit not given here.
Series [7] deals with blood glucose and insulin levels. Conditions: about 0.4 to about 0.8 mg/kg body weight before each meal; subjects with postprandial hyperglycemia and reactive hypoglycemia; cited from earlier work.
For series [8] the following is noted: literature clinical trials; cited from earlier work.
Setting [9] is: oral 300 mg per day divided in three dosages.
Setting [10] is: DEXA, 6 months vs baseline, P<0.001.
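For change of LDL cholesterol in this document: obese men given oral Diazoxide before meals with dose raised monthly up to 300 mg three times daily, plus diet and walking advice, measured at baseline and after six months.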
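For change of systolic blood pressure in this document: obese men given oral Diazoxide before meals with dose raised monthly up to 300 mg three times daily, plus diet and walking advice, measured at baseline and after six months.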
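For decrease of diastolic blood pressure in this document: obese men given oral Diazoxide before meals with dose raised monthly up to 300 mg three times daily, plus diet and walking advice, measured at baseline and after six months.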
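For increase of adiponectin levels in this document: obese men given oral Diazoxide before meals with dose raised monthly up to 300 mg three times daily, plus diet and walking advice, measured at baseline and after six months.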

In the case of `CNC(=NS(=O)(=O)c1ccc(Cl)cc1)N1C[C@H](c2ccccc2)C(c2ccc(Cl)cc2)=N1` [Compound A, (4S)-3-(4-chlorophenyl)-N′-[(4-chlorophenyl)sulfonyl]-N-methyl-4-phenyl-4,5-dihydro-1-H-pyrazole-1-carboximidamide], the “inhibiting insulin secretion compared with Diazoxide” value with insulin secretion is on record as “more effective than Diazoxide”.
In the case of `CC1=NS(=O)(=O)c2cc(Cl)ccc2N1` [Diazoxide, 7-chloro-3-methyl-4H-1,2,4-benzothiadiazine 1,1-dioxide], in the series with plasma insulin levels (setting [9]), the “effect on fasting or postprandial glucose levels” value is recorded as “without affecting fasting or postprandial glucose levels” and the “reduction of plasma insulin levels” value is listed as “about 20%”. Also, the “effect on plasma glucose and insulin levels” value with plasma insulin levels (oral 150 and 225 mg per day divided in three dosages) is “no significant effect”. The plasma level entry in [1] (after six months, mean dosage about 585 mg/day) is on record as “about 49 mg/l”. For the same compound, the body weight result in [1] (after six months, mean dosage about 585 mg/day, from about 114 kg) is reported as “about 103 kg”. In addition, in series [1] (dose raised monthly from 150 to ultimately 900 mg/day), the “tolerability of higher dosages” value is “generally not tolerated due to side effects, in particular hyperglycaemia and edema”. Further, in series [2] (6 months vs baseline), the “change of LDL cholesterol” value is “did not change significantly” and the “change of systolic blood pressure” value was “did not change”. Moreover, the “decrease of diastolic blood pressure” value in series [2] (6 months vs baseline, 95% CI: 6.5-15.4 mm Hg, P<0.001) is reported as 10.9±2.3 mm Hg. In addition, the “increase of adiponectin levels” value in series [2] (6 months vs baseline, P<0.001) stood at 100±17%. Besides, the “increase of HbAlc” value in series [2] (6 months vs baseline, P<0.02) was 0.5 % points. In addition, the “main dose limiting events” value in series [2] (14 men, six months, 300 to 900 mg/day, other adverse effects not observed) was “Hyperglycaemia (n=4) and edema (n=8)”. The same compound yielded a Weight in series [2] (P<0.001) of 105.7 ± 3.5 kg. Moreover, in [2] (P<0.001, listed as DZX), the Weight came to 105.7 ± 3.8 kg. In series [2] (DEXA after 6 months Diazoxide, baseline 3.35 ± 0.14, NS), the “Bone Mass” value is listed as 3.47 ± 0.11 kg. The “Fat Mass” value in [2] (DEXA after 6 months Diazoxide, baseline 40.1 ± 1.8, P<0.001) is listed as 30.7 ± 2.1 kg. Besides, in [2] (DEXA after 6 months Diazoxide, baseline 70.2 ± 2.0, NS), the “Soft Tissue LBM” value was determined as 70.6 ± 2.4 kg. In series [2] (DEXA, 6 months vs baseline), the “change in soft tissue lean body mass or bone mass” value is on record as “without a concomitant change”. In series [2] (setting [10]), the “change of total body fat mass” value is recorded as −23.3% and the “decrease of total body fat mass” value amounted to 9.5 ± 1.9 kg. The “plasma insulin level at which substantial loss of body fat (decrease of 10 kg or more) occurred” value in series [2] (FIG. 5, fasting insulin at 6 months, mean DZX dose in this subgroup 630±56 mg, about 30 pmol/L) is “below 4.5 mU/L”. The compound also registered a Urate in series [2] (after 6 months Diazoxide, baseline 0.37 ± 0.01, P<0.02) of 0.32 ± 0.02 mmol/L. Besides, the HDL-Cholesterol in series [2] (after 6 months Diazoxide, baseline 1.12 ± 0.07, P<0.05) turned out to be 1.25 ± 0.09 mmol/L. The compound further yielded a Triglycerides in series [2] (after 6 months Diazoxide, baseline 2.17 ± 0.26, P<0.001) of 1.08 ± 0.13 mmol/L. The LDL-Cholesterol in series [2] (after 6 months Diazoxide, baseline 3.19 ± 0.32, NS) was 2.97 ± 0.23 mmol/L. Moreover, the HbA1c in series [2] (after 6 months Diazoxide, baseline 5.4 ± 0.1, P<0.02) was 5.9 ± 0.2%. The same compound gave an Adiponectin in series [2] (after 6 months Diazoxide, baseline 6.4 ± 0.5, P<0.001) of 12.5 ± 1.2 mg/L. The compound also returned a BMI in series [2] (after 6 months Diazoxide, baseline 33.8 ± 0.5, P<0.001) of 31.0 ± 0.7 kg/m^2. Further, in [2] (after 6 months Diazoxide, baseline 85.8 ± 2.1, P<0.001), the “Diastolic BP” value is 74.9 ± 2.1 mmHg. The Waist circumference in [2] (after 6 months Diazoxide, P<0.001) was 107.7 ± 2.2 cm. In addition, in [2] (after 6 months Diazoxide, P<0.001, listed as DZX), the Waist circumference is 107.7±2.2 cm. For the same compound, in series [2] (after 6 months Diazoxide, baseline 128.8 ± 3.2, NS), the “Systolic BP” value is 128.8 ± 3.0 mmHg. Moreover, the “Glucosuria in fasting morning urine samples” value in series [2] (during six months of treatment) is “not observed”. The “discontinuation because of side-effects” value in series [2] (of eighteen obese men included) was “two men stopped because of side-effects (rash and edema, respectively)”. Also, in series [2] (subgroup with weight loss between 5 and 10% (4/14 men)), the mean weight loss came to 6.7±0.5%. The mean weight loss in series [2] (subgroup with weight loss less than 5% (5/14 men)) was 3.1±0.8%. In addition, the mean weight loss in series [2] (subgroup with weight loss more than 10% (5/14 men)) was 15.7±0.7%. Also, the concentration at 150 min in series [3] stood at 50000 ± 5800 ng/mL. Further, in [4], the weight loss was 9.8 kg. Further, the “effect on weight loss” value in series [5] was “No effect”. Also, in series [6] (6 months vs baseline, P<0.001), the “reduction of AUCIns” value is on record as 63%, the “reduction of fasting insulin levels” value turned out to be 65% and the “reduction of post-meal insulin peak levels” value came out at 62%. In series [6] (6 months vs baseline, P<0.01), the “increase of fasting glucose” value amounted to 0.8 ± 0.3 mmol/L. In addition, in [6] (6 months vs baseline, P<0.02), the “rise of AUCGluc” value is listed as 29%. Moreover, in series [6] (6 months vs baseline, P=0.06), the “increase of peak glucose” value came to 1.4 ± 0.7 mmol/L. Moreover, in series [6] (6 months vs baseline, printed 95% CI: 60-145%, P<0.001), the “increase of whole body insulin sensitivity” value amounted to 209%. Besides, the “Whole Body Insulin Sensitivity” value in series [6] (after 6 months Diazoxide, baseline 3.0 ± 0.3, P<0.001) is reported as 8.8 ± 1.2. Further, the Fasting glucose in [6] (after 6 months Diazoxide, baseline 5.5 ± 0.2, P<0.01) is recorded as 6.3 ± 0.3 mmol/L. Besides, the “Fasting Insulin” value in series [6] (after 6 months Diazoxide, baseline 18.0 ± 2.3, P<0.001) is given as 5.6 ± 0.7 mU/L. The compound further displayed a Peak glucose in series [6] (meal test after 6 months Diazoxide, baseline 8.4 ± 0.3, NS) of 9.8 ± 0.7 mmol/L. Besides, the AUC insulin in series [6] (meal test after 6 months Diazoxide, baseline 16.6 ± 2.1, P<0.001) was found to be 5.4 ± 0.4 mU · 10^−3/L · min. The “Peak Insulin” value in series [6] (meal test after 6 months Diazoxide, baseline 124 ± 17, P<0.001) is on record as 35 ± 4 mU/L. Further, the “effect on blood glucose and insulin levels” value in series [7] is “effective to normalize blood glucose and insulin levels”.
As to `CCCCCCCCCCC[C@@H](C[C@@H]1OC(=O)[C@H]1CCCCCC)OC(=O)[C@H](CC(C)C)NC=O` [Orlistat], the “(placebo-subtracted) net weight loss” value in series [8] is given as about 3 kg.
`Cc1c(C(=O)NN2CCCCC2)nn(-c2ccc(Cl)cc2Cl)c1-c1ccc(Cl)cc1` [Rimonabant]: the “(placebo-subtracted) net weight loss” value in [8] was “about 6 kg”.
On to `CC(C)CC(N(C)C)C1(c2ccc(Cl)cc2)CCC1` (stereo not shown) [Sibutramine], for which the “(placebo-subtracted) net weight loss” value in series [8] is “about 5 kg”.
